From patent US20250215029A1 (Recludix Pharma, Inc., priority 2022, published 2025)
Where two headings read alike, the source gives them in different places.

Experiments:
pY705-STAT3 in PBMC = target: T1, pY705-STAT3 in PBMC (Homo sapiens, UniProt P40763); test: MSD-pSTAT-PBMC Assay (pSTAT3, IL-6 stimulated); assay type: cell-based; details: PBMC, compound 3 hrs, then 10 ng/mL IL-6 for 10 min; Table 115; read-out: STAT3
T1 construct: Cryopreserved Peripheral Blood Mononuclear Cells (PBMC) are from AllCells; host or cells: cryopreserved PBMC
T1 sequence (P40763 whole entry): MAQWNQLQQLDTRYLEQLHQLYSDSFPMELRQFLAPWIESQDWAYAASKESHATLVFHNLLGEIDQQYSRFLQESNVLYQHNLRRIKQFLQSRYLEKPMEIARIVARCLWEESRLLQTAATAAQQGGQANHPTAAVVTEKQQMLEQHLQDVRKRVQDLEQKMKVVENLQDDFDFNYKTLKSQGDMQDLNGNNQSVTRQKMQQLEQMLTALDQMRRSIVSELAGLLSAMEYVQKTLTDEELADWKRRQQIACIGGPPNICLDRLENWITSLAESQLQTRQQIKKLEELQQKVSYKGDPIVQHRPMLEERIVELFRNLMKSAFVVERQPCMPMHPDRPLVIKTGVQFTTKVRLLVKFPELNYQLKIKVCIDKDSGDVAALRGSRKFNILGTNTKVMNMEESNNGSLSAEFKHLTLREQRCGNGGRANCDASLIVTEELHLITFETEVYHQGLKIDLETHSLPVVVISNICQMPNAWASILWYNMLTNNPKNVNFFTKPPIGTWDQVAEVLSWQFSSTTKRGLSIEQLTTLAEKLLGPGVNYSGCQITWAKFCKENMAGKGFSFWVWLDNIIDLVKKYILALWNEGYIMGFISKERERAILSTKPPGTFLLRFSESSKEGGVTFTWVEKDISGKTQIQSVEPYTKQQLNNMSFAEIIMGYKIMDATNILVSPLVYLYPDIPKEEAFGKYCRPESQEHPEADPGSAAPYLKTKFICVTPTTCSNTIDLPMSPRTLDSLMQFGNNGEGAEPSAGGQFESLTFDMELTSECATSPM
Excerpt: Cryopreserved Peripheral Blood Mononuclear Cells (PBMC) are from AllCells. Recombinant Human IL-4 and IL-6 are from Peprotech. Mouse monoclonal anti-STAT3 antibody, rabbit monoclonal anti-pY705-STAT3 antibody, rabbit monoclonal Anti-pY641-STAT6 antibody, and lysis buffer are from Cell Signaling Technology (CST). Mouse monoclonal anti-STAT6 antibody is from BioLegend. Assay plates, blocker, and anti-rabbit secondary antibody are from Meso Scale Discovery (MSD).
Cyropreserved PBMCs were thawed out and allowed to recover overnight in IMDM+10% heat-inactivated FBS prior to plating 50,000 (STAT3) or 25,000 (STAT6) cells per well in 96-well U-bottom tissue culture plates. Cells were treated with compound for 3 hrs, then stimulated with 10 ng/mL IL-6 (STAT3) or 1 ng/mL IL-4 (STAT6) for 10 min. Cells were then spun down and washed with ice-cold PBS prior to lysing the cell pellet with 1× lysis buffer (CST) with 1× HALT protease and phosphatase inhibitor cocktail (Thermo). Lysates were transferred to and incubated overnight at 4° C. with shaking in QuickPlex 96-well high bind assay plates (MSD) pre-coated overnight with 30 μL per well of 0.6 μg/mL mouse monoclonal anti-STAT3 antibody (STAT3) or 2 μg/mL mouse monoclonal anti-STAT6 antibody (STAT6) in 1× PBS, and pre-blocked for 1 hour with 3% Blocker-A (MSD). Captured protein in the assay plates were then washed and probed with 25 μL per well of […] rabbit monoclonal anti-pY705-STAT3 antibody (STAT3) or 0.18 μg/ml rabbit monoclonal Anti-pY641-STAT6 antibody (STAT6) in 1% Blocker-A for 1 hour at room temperature with shaking, then washed and probed with 25 ul per well of 1 ug/ml Sulfo-TAG Labeled Goat Anti-Rabbit Antibody (MSD) in 1% Blocker-A for 1 hour at room temperature with shaking. Assay plates were then washed and 150 μL of 1× Read Buffer-T (MSD) was added to each well prior to reading on an SQ120 MSD Plate Reader. Assay signal from each sample was subtracted by the signal from unstimulated control wells and normalized to DMSO control wells. IC50 values were calculated using Graph Pad Prism Dose-Response Nonlinear Regression with variable slope. For both pSTAT3 and pSTAT6 A=≤100 nM; B 100-1000 nM; C=>1000-3000 nM; D=>3 μM; and NT=Not Tested.

[1] = target: T2, Recombinant STAT6 protein (STAT6 (W123-T658)) (Homo sapiens, UniProt P42226); test: STAT6 Fluorescence Polarization (FP) Assay; assay type: binding; details: probe 5-FAM-Ap[…]-NH2 2 nM, 45-minute incubation
T2 construct: Recombinant STAT6 protein (STAT6 (W123-T658))
T2 sequence (P42226 123-658): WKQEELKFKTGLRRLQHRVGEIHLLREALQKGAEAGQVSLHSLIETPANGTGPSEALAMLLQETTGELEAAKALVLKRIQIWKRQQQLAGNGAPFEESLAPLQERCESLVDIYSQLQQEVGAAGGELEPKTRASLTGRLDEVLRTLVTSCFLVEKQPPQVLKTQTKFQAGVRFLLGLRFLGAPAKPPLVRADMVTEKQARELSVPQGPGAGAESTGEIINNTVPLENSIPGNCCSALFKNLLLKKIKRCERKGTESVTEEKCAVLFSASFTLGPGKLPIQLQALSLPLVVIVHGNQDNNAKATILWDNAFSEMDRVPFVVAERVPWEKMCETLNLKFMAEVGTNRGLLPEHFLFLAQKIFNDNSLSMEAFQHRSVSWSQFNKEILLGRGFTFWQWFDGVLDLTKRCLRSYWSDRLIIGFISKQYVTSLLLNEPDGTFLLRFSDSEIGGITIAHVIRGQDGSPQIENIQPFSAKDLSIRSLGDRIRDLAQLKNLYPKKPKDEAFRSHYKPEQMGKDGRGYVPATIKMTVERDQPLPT
How it was run: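 Competitive FP binding: recombinant STAT6 (W123-T658) at 250 nM, labeled phosphotyrosine peptide at 2 nM, compounds at 1% DMSO, 45 min at RT before reading. IC50 values were obtained from nonlinear regression of mP versus log concentration.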

[2] = target: T3, Recombinant STAT3 protein (STAT3 (G127-I722)) (Homo sapiens, UniProt P40763); test: STAT3 Fluorescence Polarization (FP) Assay; assay type: binding; details: probe 5-FAM-GpYLPQTV-NH2 2 nM, 45-minute incubation
T3 construct: Recombinant STAT3 protein (STAT3 (G127-I722))
T3 sequence (P40763 127-722): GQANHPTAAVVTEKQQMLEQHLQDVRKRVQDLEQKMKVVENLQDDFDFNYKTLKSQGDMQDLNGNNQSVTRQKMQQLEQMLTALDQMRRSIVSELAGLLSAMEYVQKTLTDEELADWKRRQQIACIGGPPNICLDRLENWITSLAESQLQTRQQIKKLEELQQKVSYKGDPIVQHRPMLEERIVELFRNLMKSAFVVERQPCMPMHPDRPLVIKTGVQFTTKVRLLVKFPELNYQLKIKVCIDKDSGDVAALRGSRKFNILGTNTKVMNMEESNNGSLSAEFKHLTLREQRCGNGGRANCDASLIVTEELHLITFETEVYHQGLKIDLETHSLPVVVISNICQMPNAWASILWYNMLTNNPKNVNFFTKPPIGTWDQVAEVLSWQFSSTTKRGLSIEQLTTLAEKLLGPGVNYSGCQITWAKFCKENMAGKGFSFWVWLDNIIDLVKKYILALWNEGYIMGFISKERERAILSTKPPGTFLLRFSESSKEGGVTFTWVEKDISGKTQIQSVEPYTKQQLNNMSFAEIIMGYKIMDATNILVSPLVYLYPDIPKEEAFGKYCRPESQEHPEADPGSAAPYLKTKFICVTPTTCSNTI
How it was run: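 Displacement of a 2 nM 5-FAM-labelled pY peptide (GpYLPQTV) from 25 nM recombinant STAT3 (G127-I722) was monitored by fluorescence polarization. Incubation lasted 45 min at room temperature in pH 7.4 HEPES buffer containing 1% DMSO.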

[3] = STAT6 250 nM, read-out: STAT6 (FP assay IC50)
[4] = STAT3 25 nM, read-out: STAT3 (FP assay IC50)
[5] = STAT6 (W123-T658) 250 nM, read-out: STAT6 (FP assay IC50 class)
[6] = STAT3 (G127-I722) 25 nM, read-out: STAT3 (FP assay IC50 class)

Row | Compound | IC50 [1, 3] | IC50 [2, 4] | IC50 [1, 5] | IC50 [2, 6] | IC50 (pY705-STAT3 in PBMC)
1 | CCCOC(=O)[C@H](C)NP(=O)(Oc1ccccc1)C(F)c1ccc2sc(C(=O)N[C@H]3CCCC[C@H]4CC[C@@H](C(=O)N[C@H]5CN(C(N)=O)C[C@@H]5F)N4C3=O)cc2c1 (stereo partly drawn) [Compound 958, propyl (((2-(((3S,6S,10aS)-3-(((3S,4S)-1-carbamoyl-4-fluoropyrrolidin-3-yl)carbamoyl)-5-oxodeca-hydropyrrolo [1,2-a]azocin-6-yl)carbamoyl)benzo [b]thiophen-5-yl)fluoromethyl) (phenoxy)phosphoryl)-L-alaninate] | – | – | – | – | 1 to 3 µM
2 | O=C(N[C@H]1CCCC[C@H]2CC[C@@H](C(=O)NC(CO)Cc3ccccc3)N2C1=O)c1cc2cc(C(F)(F)P(=O)(O)O)ccc2s1 (stereo partly drawn) [Compound 98, (difluoro(2-(((3S,6S,10aS)-3-((1-hydroxy-3-phenylpropan-2-yl)carbamoyl)-5-oxodecahydropyrrolo [1,2-a]azocin-6-yl)carbamoyl)benzo[b]thiophen-5-yl)methyl) phosphonic acid] | 3 to 30 µM | 0.1 to 1 µM | – | – | –
3 | O=C(N[C@H]1CCC[C@H]2CC[C@@H](C(=O)N3CC(c4cnccc4OC(F)F)C3)N2C1=O)c1cc2cc(CP(=O)(O)O)ccc2s1 [Compound 632, ((2-(((3S,6S,9aS)-3-(3-(4-(difluoromethoxy)pyridin-3-yl)azetidine-1-carbonyl)-5-oxooctahydro-1H-pyrrolo[1,2-a]azepin-6-yl)carbamoyl)benzo [b]thiophen-5-yl)methyl) phosphonic acid] | – | – | 3 to 30 µM | 1 to 10 µM | –
4 | Cc1cccnc1N1C[C@H](NC(=O)[C@@H]2CC[C@@H]3CCCC[C@H](NC(=O)c4cc5cc(C(F)P(=O)(O)O)ccc5s4)C(=O)N32)[C@@H](F)C1 (stereo partly drawn) [Compound 555, (fluoro(2-(((3S,6S,10aS)-3-(((3S,4S)-4-fluoro-1-(3-methylpyridin-2-yl)pyrrolidin-3-yl)carbamoyl)-5-oxodecahydropyrrolo[1,2-a]azocin-6-yl)carbamoyl)benzo[b]thiophen-5-yl)methyl)phosphonic acid] | – | – | 3 to 30 µM | 0.1 to 1 µM | –
5 | O=C(N[C@H]1CCCC[C@H]2CC[C@@H](C(=O)N3CCC(c4ccccc4F)C3)N2C1=O)c1cc2cc(C(F)P(=O)(O)O)ccc2s1 (stereo partly drawn) [Compound 563, (fluoro(2-(((3S,6S,10aS)-3-(3-(2-fluorophenyl)pyrrolidine-1-carbonyl)-5-oxodecahydropyrrolo[1,2-a]azocin-6-yl)carbamoyl)benzo[b]thiophen-5-yl)methyl)phosphonic acid] | – | – | 0.3 to 3 µM | 1 to 10 µM | –
6 | COc1ncccc1[C@@H]1CN(C(=O)[C@@H]2CC[C@@H]3CCCC[C@H](NC(=O)c4cc5cc(C(F)P(=O)(O)O)ccc5s4)C(=O)N32)C[C@H]1C#N (relative stereo) [Compound 230, ((2-(((3S,6S,10aS)-3-((rel-trans)-3-cyano-4-(2-methoxypyridin-3-yl)pyrrolidine-1-carbonyl)-5-oxodecahydropyrrolo[1,2-a]azocin-6-yl)carbamoyl)benzo[b]thiophen-5-yl)fluoromethyl)phosphonic acid] | – | – | ≤ 0.3 µM | 1 to 10 µM | –
7 | C[C@@]1(O)CC[C@H]2CC[C@@H](C(=O)N3CC(C(=O)N4CCOCC4)C3)N2C(=O)[C@@H](NC(=O)c2cc3cc(C(F)(F)P(=O)(O)O)ccc3s2)C1 [Compound 17, (difluoro(2-(((3S,6S,8R,10aR)-8-hydroxy-8-methyl-3-(3-(morpholine-4-carbonyl)azetidine-1-carbonyl)-5-oxodecahydropyrrolo [1,2-a]azocin-6-yl)carbamoyl)benzo[b]thiophen-5-yl)methyl) phosphonic acid] | 3 to 30 µM | < 0.1 µM | – | – | –

More lines, main results first:

Row | IC50 [1, 3] | IC50 [2, 4] | IC50 [1, 5] | IC50 [2, 6] | Compound | IC50 (pY705-STAT3 in PBMC)
8 | – | – | 3 to 30 µM | 1 to 10 µM | N#Cc1cncc(C2CN(C(=O)[C@@H]3CC[C@@H]4CCC[C@H](NC(=O)c5cc6cc(CP(=O)(O)O)ccc6s5)C(=O)N43)C2)c1 [Compound 659, ((2-(((3S,6S,9aS)-3-(3-(5-cyanopyridin-3-yl)azetidine-1-carbonyl)-5-oxooctahydro-1H-pyrrolo[1,2-a]azepin-6-yl)carbamoyl)benzo [b]thiophen-5-yl)methyl) phosphonic acid] | –
9 | – | – | 0.3 to 3 µM | < 0.1 µM | N#Cc1ccnc(C2CN(C(=O)[C@@H]3CC[C@@H]4CCC[C@H](NC(=O)c5cc6cc(C(F)(F)P(=O)(O)O)ccc6s5)C(=O)N43)C2)n1 [Compound 824, ((2-(((3S,6S,9aS)-3-(3-(4-cyanopyrimidin-2-yl)azetidine-1-carbonyl)-5-oxooctahydro-1H-pyrrolo[1,2-a]azepin-6-yl)carbamoyl)benzo [b]thiophen-5-yl)difluoromethyl) phosphonic acid] | –
10 | – | – | ≤ 0.3 µM | 1 to 10 µM | O=C(N[C@H]1CCCC[C@H]2CC[C@@H](C(=O)N3CC(c4ccccc4)CC34CC4)N2C1=O)c1ccc2ccc(C(F)(F)P(=O)(O)O)cc2c1 (stereo partly drawn) [Compound 880, (difluoro(7-(((3S,6S,10aS)-5-oxo-3-(6-phenyl-4-azaspiro[2.4]heptane-4-carbonyl)decahydropyrrolo[1,2-a]azocin-6-yl)carbamoyl)naphthalen-2-yl)methyl) phosphonic acid] | –
11 | – | – | 3 to 30 µM | < 0.1 µM | Cc1nccnc1C1CN(C(=O)[C@@H]2CC[C@@H]3CCC[C@H](NC(=O)c4cc5cc(C(F)(F)P(=O)(O)O)ccc5s4)C(=O)N32)C1 [Compound 648, (difluoro(2-(((3S,6S,9aS)-3-(3-(3-methylpyrazin-2-yl)azetidine-1-carbonyl)-5-oxooctahydro-1H-pyrrolo[1,2-a]azepin-6-yl)carbamoyl)benzo [b]thiophen-5-yl)methyl) phosphonic acid] | –
12 | – | – | 3 to 30 µM | < 0.1 µM | O=C(N[C@H]1CCC[C@H]2CC[C@@H](C(=O)N3CC(c4cnccc4N4CC[C@H](F)C4)C3)N2C1=O)c1cc2cc(CP(=O)(O)O)ccc2s1 [Compound 666, ((2-(((3S,6S,9aS)-3-(3-(4-((S)-3-fluoropyrrolidin-1-yl)pyridin-3-yl)azetidine-1-carbonyl)-5-oxooctahydro-1H-pyrrolo[1,2-a]azepin-6-yl)carbamoyl)benzo [b]thiophen-5-yl)methyl) phosphonic acid] | –
13 | – | – | 0.3 to 3 µM | 1 to 10 µM | Cn1ccc(C2CCN(C(=O)[C@@H]3CC[C@@H]4CCCC[C@H](NC(=O)c5ccc6ccc(C(F)P(=O)(O)O)cc6c5)C(=O)N43)C2)cc1=O (stereo partly drawn) [Compound 899, (fluoro(7-(((3S,6S,10aS)-3-(3-(1-methyl-2-oxo-1,2-dihydropyridin-4-yl)pyrrolidine-1-carbonyl)-5-oxodecahydropyrrolo [1,2-a]azocin-6-yl)carbamoyl)naphthalen-2-yl)methyl) phosphonic acid] | –
